# Values of other authors, collected in patent US20020148003A1, “Transgenic plant or plants with a naturally high water content overproducing at least two amino acids of the aspartate family” (AVEBE, priority 1996, published 2002).
# Columns and labels:
# [1] = tested on: plant dihydrodipicolinate synthase (DHPS)
# [2] = target: plant aspartate kinase (AK) sensitive to lysine; conditions: plant AKs, lysine inhibition; read-out: I50 of plant AKs sensitive to lysine
# E. coli DHPS = E. coli DHPS (Escherichia coli, UniProt P0A6L2); conditions: lysine inhibition, read-out: I50 of E. coli DHPS for lysine
# Sequence of E. coli DHPS (P0A6L2 whole entry): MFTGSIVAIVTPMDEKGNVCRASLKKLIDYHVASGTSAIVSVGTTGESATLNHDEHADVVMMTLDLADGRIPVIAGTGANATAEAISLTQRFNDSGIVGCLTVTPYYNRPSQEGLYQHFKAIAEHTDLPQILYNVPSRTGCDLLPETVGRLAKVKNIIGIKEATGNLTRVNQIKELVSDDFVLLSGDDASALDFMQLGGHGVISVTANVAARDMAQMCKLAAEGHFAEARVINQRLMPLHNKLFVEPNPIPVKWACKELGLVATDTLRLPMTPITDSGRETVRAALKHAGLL
compound,measurement,setting,value
NCCCC[C@H](N)C(=O)O [lysine],"sensitivity to lysine inhibition, plant DHPS versus E. coli DHPS",[1]; plant DHPS more sensitive than E. coli DHPS,about 100 fold
same,"sensitivity to lysine inhibition, plant DHPS versus plant AKs",[1]; plant DHPS more sensitive than lysine-sensitive plant AKs,about 10 fold
same,IC50,"[1]; plant DHPS, feedback inhibition by end product, read-out: I50 of DHPS for lysine",10 to 50 µM
same,IC50,[2],100 to 700 µM
same,IC50,E. coli DHPS,~1000 µM
